Measurements as given in ChEMBL document CHEMBL6182916, “Unexpected Discovery of a Novel Triphenylphosphonium Alkylalcohol That Triggers Cancer Cell Death via Mitophagy and Ferroptosis” (J Med Chem, 2025).
Calls of active or inactive are those of the source. No cut-off for these calls is given here.

Columns and labels:
[1] = biological target: T1, Heat shock protein 75 kDa, mitochondrial (Homo sapiens) (UniProt Q12931); assay: Inhibition of human TRAP1 assessed as fold increase in ATPase activity at 20 uM
T1 sequence (whole entry): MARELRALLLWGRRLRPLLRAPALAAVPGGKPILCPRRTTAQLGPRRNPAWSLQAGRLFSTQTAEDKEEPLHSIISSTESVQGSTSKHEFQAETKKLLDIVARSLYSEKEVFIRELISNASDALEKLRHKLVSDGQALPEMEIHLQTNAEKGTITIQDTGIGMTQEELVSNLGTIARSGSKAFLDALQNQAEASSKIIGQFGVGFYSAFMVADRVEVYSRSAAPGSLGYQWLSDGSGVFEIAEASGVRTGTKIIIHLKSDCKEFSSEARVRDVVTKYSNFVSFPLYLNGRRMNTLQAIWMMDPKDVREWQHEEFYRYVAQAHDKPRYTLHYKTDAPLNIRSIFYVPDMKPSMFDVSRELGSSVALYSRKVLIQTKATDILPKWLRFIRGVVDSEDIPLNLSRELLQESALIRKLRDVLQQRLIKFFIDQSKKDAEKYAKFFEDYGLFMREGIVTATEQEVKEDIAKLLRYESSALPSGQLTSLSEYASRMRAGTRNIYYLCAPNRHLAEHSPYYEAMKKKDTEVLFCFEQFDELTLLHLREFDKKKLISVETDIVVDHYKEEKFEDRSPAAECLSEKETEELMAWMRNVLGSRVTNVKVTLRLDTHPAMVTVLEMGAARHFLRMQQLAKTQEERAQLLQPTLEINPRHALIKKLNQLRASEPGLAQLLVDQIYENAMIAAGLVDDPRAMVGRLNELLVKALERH

[2] = Drug localization in mitochondria of human HCC827 cells assessed as increase in green fluorescence by measuring pearson correlation coefficient at 5 uM incubated for 10 mins by mito-tracker green dye based confocal scanning microscopy analysis; assay type: ADME; conditions: hcc827, 10 min
[3] = system: A-375; assay: Anticancer activity against human A-375 cells assessed as inhibition of cell growth by MTT assay; assay type: functional, cell-based
[4] = Drug metabolism in human HCC827 cells mitochondria assessed as 2-(2-(4-hydroxystyryl)-4H-chromen-4-ylidene)malononitrile hydrolysis at 10 uM incubated for 5 mins by fluorescence emission spectroscopy analysis; assay type: ADME; conditions: hcc827, 5 min
[5] = Drug localization in mitochondria of human HCC827 cells assessed as increase in green fluorescence by measuring pearson correlation coefficient at 10 uM incubated for 10 mins by mito-tracker green dye based confocal scanning microscopy analysis; assay type: ADME; conditions: hcc827, 10 min
[6] = Drug uptake in human HCC827 cells mitochondria assessed as increase in fluorescence intensity at 10 uM by fluorescence emission spectroscopy analysis; assay type: ADME; conditions: hcc827, 10 µM
[7] = system: HeLa; assay: Induction of mitophagy in human HeLa cells harbouring mCherry-GFP tag assessed as visible mCherry fluorescence at 40 uM incubated for 24 hrs by confocal microscopy analysis; assay type: functional, cell-based
[8] = system: HeLa; assay: Induction of mitophagy in human HeLa cells assessed as colocalization of mitochondria and lysosomes at 40 uM by mitoGFP staining based confocal microscopy analysis; assay type: functional, cell-based
[9] = system: HeLa; assay: Induction of mitophagy in human HeLa cells assessed as colocalization of mitochondria and lysosomes at 40 uM by lysotracker red staining based confocal microscopy analysis; assay type: functional, cell-based
[10] = system: HeLa; assay: Induction of mitophagy in human HeLa cells harbouring mCherry-GFP tag assessed as reduction in GFP fluorescence at 40 uM incubated for 24 hrs by confocal microscopy analysis; assay type: functional, cell-based

Row | SMILES | Drug metabolism [4] | Drug uptake [5] | Drug uptake [6] | also measured
1 | CC1=C(C)C(=O)C(CCCCCCCCCC[P+](c2ccccc2)(c2ccccc2)c2ccccc2)=CC1=O |  |  |  | fold change (FC) [1]: 1.4
2 | N#CC(C#N)=C1C=C(/C=C/c2ccc(O)cc2)Oc2ccccc21 |  |  |  | Drug uptake [2]: 0.21
3 | OCCCCC[P+](c1ccccc1)(c1ccccc1)c1ccccc1 |  |  |  | IC50 [3]: > 40 µM
4 | N#CC(C#N)=C1C=C(/C=C/c2ccc(OC(=O)OCCCCCCCCCC[P+](c3ccccc3)(c3ccccc3)c3ccccc3)cc2)Oc2ccccc21.[Br-] | metabolite_detected | 0.9 | Active | 
5 | Cc1ccc([P+](CCCCCCCCCCOC(=O)Oc2ccc(/C=C/C3=CC(=C(C#N)C#N)c4ccccc4O3)cc2)(c2ccc(C)cc2)c2ccc(C)cc2)cc1.[Br-] | metabolite_detected | 0.84 | Active | 
6 | N#CC(C#N)=C1C=C(/C=C/c2ccc(OC(=O)OCCCCCCCCCC[P+](c3ccc(C(F)(F)F)cc3)(c3ccc(C(F)(F)F)cc3)c3ccc(C(F)(F)F)cc3)cc2)Oc2ccccc21.[Br-] | metabolite_detected | 0.46 | Not_active | 
7 | N#CC(C#N)=NNc1cccc(Cl)c1 |  |  |  | Activity [7]: Active; Activity [8]: Active; Activity [9]: Active; Activity [10]: Active
